For the test, the target named is T1, Mitogen-activated protein kinase kinase kinase 19 (Homo sapiens, UniProt Q56UN5).
T1 sequence (Q56UN5 whole entry): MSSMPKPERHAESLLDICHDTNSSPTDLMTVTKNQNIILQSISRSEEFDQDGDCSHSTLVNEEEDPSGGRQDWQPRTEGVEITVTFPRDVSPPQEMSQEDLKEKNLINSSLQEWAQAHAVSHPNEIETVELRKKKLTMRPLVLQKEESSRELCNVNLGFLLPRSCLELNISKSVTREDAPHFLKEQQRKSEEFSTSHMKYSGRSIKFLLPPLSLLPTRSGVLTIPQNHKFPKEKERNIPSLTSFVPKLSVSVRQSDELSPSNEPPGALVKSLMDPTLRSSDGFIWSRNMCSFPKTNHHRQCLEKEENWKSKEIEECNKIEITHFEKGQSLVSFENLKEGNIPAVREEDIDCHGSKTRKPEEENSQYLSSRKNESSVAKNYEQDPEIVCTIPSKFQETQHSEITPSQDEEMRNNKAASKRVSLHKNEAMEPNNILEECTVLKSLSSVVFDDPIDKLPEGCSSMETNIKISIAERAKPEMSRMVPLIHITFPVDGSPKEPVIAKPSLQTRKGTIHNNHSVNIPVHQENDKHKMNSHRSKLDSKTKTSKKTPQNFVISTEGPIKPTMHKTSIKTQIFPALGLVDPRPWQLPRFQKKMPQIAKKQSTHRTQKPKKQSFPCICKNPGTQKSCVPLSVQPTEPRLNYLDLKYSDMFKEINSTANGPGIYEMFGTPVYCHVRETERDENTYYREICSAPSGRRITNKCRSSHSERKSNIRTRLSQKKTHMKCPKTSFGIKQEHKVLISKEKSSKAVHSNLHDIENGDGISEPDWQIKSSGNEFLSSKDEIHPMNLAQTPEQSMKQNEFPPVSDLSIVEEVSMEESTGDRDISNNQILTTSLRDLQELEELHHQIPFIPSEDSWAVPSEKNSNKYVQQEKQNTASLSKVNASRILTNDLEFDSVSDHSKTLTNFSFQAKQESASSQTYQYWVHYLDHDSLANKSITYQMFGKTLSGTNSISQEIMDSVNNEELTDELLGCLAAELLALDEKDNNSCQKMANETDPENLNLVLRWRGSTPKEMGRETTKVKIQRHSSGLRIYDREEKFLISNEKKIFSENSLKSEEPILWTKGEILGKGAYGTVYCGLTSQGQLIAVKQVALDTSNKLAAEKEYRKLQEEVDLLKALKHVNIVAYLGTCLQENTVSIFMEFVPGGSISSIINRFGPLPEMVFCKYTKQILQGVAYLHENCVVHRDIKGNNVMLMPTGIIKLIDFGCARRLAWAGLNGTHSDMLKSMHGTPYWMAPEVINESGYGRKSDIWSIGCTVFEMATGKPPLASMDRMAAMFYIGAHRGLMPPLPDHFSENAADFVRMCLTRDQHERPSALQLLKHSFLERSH
The experiment in a line: In Vitro Effect Assay: Table 5: The experimental procedure referred to the Z′-LYTE Screening Protocol and Assay Conditions provided by ThermoFisher Scientific. C-1. […] Peptide/Kinase Mixture was pre-diluted with Kinase Buffer to 2× working concentration. ATP solution was pre-diluted with Kinase Buffer (50 mM HEPES pH 7.5, 0.01% BRIJ-35, 10 mM MgCl2, 1 mM EGTA) to 4× working concentration. […], which contains 2 mg/mL Phosphatidyl Serine, 0.2 mg/mL DAG in 20 mM HEPES, pH 7.4 and 0.3% CHAPS, and was pre-diluted 10 fold with development buffer.C-2. Analytical Method. 1. 100 nL of the above diluted test compound and 2.4 μL of kinase buffer were added to a black 384-well plate (Corning, Cat. NO. 4514), then add 5 μL of the peptide/kinase mixture mentioned above was added thereto, and after that 2.5 μL of ATP solution was added thereto, and the culture plate was shaken for 30 seconds.2. Next, the culture plate was placed at room temperature and incubated for 60 minutes.3. After that 5 μL of the development reagent solution was added and the culture plate was shaken for 30 seconds in the dark, and then the data was read and analyzed with a fluorescence plate reader. […].

Take `NCC(Oc1ccc(C(F)(F)F)cc1)C(=O)Nc1ccc(-c2cn[nH]c2)cc1` (configuration not stated): the IC50 (as a rule, the point on the concentration scale where inhibition reaches its midpoint) is greater than 10 µM. Turning to `NCC(C(=O)Nc1ccc(-c2cn[nH]c2)cc1)c1ccc(CO)cc1` (configuration not stated), the IC50 is greater than 1 µM.

(Values after ChEMBL document CHEMBL5729637, “Beta-amino acid derivative, kinase inhibitor and pharmaceutical composition containing the same, and method for performing an in vivo related application that benefits from the inhibition of a kinase” (2023).)
